Patent US20250197406A1, “INDAZOLES AS HEMATOPOIETIC PROGENITOR KINASE 1 (HPK1) INHIBITORS AND METHODS FOR USING SAME” (1ST Biotherapeutics, Inc., priority 2022, published 2025)

biological target: recombinant human HPK1 (Homo sapiens (Human), UniProt Q92918); assay: HPK1 kinase assay (Promega ADP-Glo kinase assay); format: biochemical; settings: In vitro activity against HPK1, 5 ng HPK1, MBP substrate, ATP 25 μM, 30° C. 40 minutes
Procedure, shortened: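 ADP-Glo luminescence assay with 5 ng recombinant human HPK1, MBP substrate and ATP (added as 25 µM solution) in Tris pH 7.5, 20 mM MgCl2, BSA, DTT, 0.5% DMSO. Reaction ran 40 min at 30 °C. IC50 was fitted from percent inhibition over an inhibitor concentration range.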

recombinant human HPK1, sequence (Q92918 whole entry): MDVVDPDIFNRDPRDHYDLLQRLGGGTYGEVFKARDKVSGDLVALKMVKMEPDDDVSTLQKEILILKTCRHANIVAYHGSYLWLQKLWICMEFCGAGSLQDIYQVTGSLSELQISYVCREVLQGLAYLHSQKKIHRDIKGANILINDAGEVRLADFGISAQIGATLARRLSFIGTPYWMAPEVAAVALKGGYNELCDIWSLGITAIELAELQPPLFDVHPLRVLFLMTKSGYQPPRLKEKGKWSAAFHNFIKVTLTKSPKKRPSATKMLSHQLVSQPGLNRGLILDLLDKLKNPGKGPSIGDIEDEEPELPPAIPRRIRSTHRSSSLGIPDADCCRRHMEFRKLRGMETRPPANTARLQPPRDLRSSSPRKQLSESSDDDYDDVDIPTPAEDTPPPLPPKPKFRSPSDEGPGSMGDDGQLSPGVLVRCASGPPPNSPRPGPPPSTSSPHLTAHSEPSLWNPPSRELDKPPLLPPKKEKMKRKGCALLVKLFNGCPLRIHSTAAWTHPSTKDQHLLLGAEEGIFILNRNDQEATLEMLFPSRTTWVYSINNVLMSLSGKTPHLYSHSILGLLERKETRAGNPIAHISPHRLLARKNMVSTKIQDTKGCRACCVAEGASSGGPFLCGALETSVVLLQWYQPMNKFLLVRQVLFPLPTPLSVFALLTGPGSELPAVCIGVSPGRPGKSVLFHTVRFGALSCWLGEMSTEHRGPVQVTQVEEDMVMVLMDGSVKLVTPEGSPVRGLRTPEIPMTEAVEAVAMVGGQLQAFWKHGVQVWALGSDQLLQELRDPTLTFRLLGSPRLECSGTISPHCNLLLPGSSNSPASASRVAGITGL

Structure (SMILES)	IC50 [nM]
CC(=O)Nc1cn2cc(-c3c(Cl)c(F)c(CN4CCC(C)(O)C4)c4[nH]ncc34)ncc2n1 (stereo not drawn) [Example 159, N-(6-(5-chloro-6-fluoro-7-((3-hydroxy-3-methylpyrrolidin-1-yl)methyl)-1H-indazol-4-yl)imidazo[1,2-a]pyrazin-2-yl)acetamide]	501 to 1000
CC(=O)Nc1cn2cc(-c3c(Cl)c(F)c(C(C)N4CC(O)C4)c4[nH]ncc34)ncc2n1 (stereo not drawn) [Example 161, N-(6-(5-chloro-6-fluoro-7-(1-(3-hydroxyazetidin-1-yl)ethyl)-1H-indazol-4-yl)imidazo[1,2-a]pyrazin-2-yl)acetamide]	501 to 1000
CC(=O)Nc1cn2cc(-c3c(Cl)c(F)c(C(C)N4CCC(O)C4)c4[nH]ncc34)ncc2n1 (stereo not drawn) [Example 163, N-(6-(5-chloro-6-fluoro-7-(1-(3-hydroxypyrrolidin-1-yl)ethyl)-1H-indazol-4-yl)imidazo[1,2-a]pyrazin-2-yl)acetamide]	501 to 1000

Second part, the molecule after the results:

IC50 [nM]	Structure (SMILES)
< 100	COc1c(F)c(NC(C)C)c2[nH]ncc2c1-c1cn2cc(NC(=O)C3CC3)nc2cn1 [Example 160, N-(6-(6-fluoro-7-(isopropylamino)-5-methoxy-1H-indazol-4-yl)imidazo[1,2-a]pyrazin-2-yl)cyclopropanecarboxamide]
< 100	CCC(=O)Nc1cn2cc(-c3c(OC)c(F)c(NC(C)C)c4[nH]ncc34)ncc2n1 [Example 162, N-(6-(6-fluoro-7-(isopropylamino)-5-methoxy-1H-indazol-4-yl)imidazo[1,2-a]pyrazin-2-yl)propionamide]
< 100	COc1c(F)c(NC(C)C)c2[nH]ncc2c1-c1cn2cc(NC(=O)[C@@H]3C[C@@H]3C#N)nc2cn1 [Example 164, (1R,2S)-2-cyano-N-(6-(6-fluoro-7-(isopropylamino)-5-methoxy-1H-indazol-4-yl)imidazo[1,2-a]pyrazin-2-yl)cyclopropane-1-carboxamide]
